Data from US4612318A, “CNS-depressant and analgesic tricyclo-[pyrazolo-[3,4-6]-pyridine] derivatives and pharmaceutical compositions thereof” (Gruppo Lepetit S.p.A., priority 1982, dated 1986).

Legend:
[1] = tested on: secondary conditioned response (CR2), primary conditioned response (CR) and unconditioned response (UR) of rats; experiment: "pole climbing avoidance test" (anti-anxiety activity); type: in vivo; conditions: i.p., about 3 to about 60 mg/kg, groups of ten rats
Description: The anti-anxiety activity of the compounds of the invention was investigated by means of the "pole climbing avoidance test", performed essentially as described by G. Maffii, in Journ. Pharm. Pharmacol., 11 129, (1959). A conditioned animal, generally rat, is deconditioned, i.e. is brought to its normal pyschic behaviour, by administration of a suitable amount of the compound to be tested. According to the authors, an inhibition of the secondary conditioned response (CR2) without a contemporary or coupled with a not significant inhibition of the primary conditioned response (CR) and the unconditioned response (UR) is a clear indication of an anti-anxiety effect since these last two parameters are connected with sedative and hypnotic properties.

[2] = tested on: writhing in mice intraperitoneally administered with p-phenylquinone; experiment: "writhing test" (p-phenylquinone) for analgesia; type: in vivo
Procedure: (§1) Hendershot and J. Forsaith, in J. Pharm. Exp. Therap. […] Int. Pharmacodyn. […] In the former the disappearance or the reduction of writhing in mice, intraperitoneally administered, with p-phenylquinone--a substance known to produce pain especially in the place of injection--is evaluated; the latter test is used to evaluate the ratio of relief from the pain due to compression of oedema paws in rats orally administered with the test compound.

[3] = tested on: pain due to compression of oedema paws in rats; experiment: "pain relief test" (compression of oedema paws) for analgesia; type: in vivo
Procedure: as §1

[4] = tested on: writhing in mice; pain due to compression of oedema paws in rats; experiment: analgesic activity in both tests (writhing test in mice and pain relief test in rats); type: in vivo
Description: The analgesic activity of the compounds of the present invention was ascertained by means of two known tests for analgesia: the "writhing test" in mice, described by L.C. Hendershot and J. Forsaith, in J. Pharm. Exp. Therap. 125, 237, (1959), and the "pain relief test" in rats described by L. O. Randall and J. J. Selitto, in Arch. Int. Pharmacodyn. 111, 409, (1957). In the former the disappearance or the reduction of writhing in mice, intraperitoneally administered, with p-phenylquinone--a substance known to produce pain especially in the place of injection--is evaluated; the latter test is used to evaluate the ratio of relief from the pain due to compression of oedema paws in rats orally administered with the test compound.

[5] = acute toxicity (LD50) in mice; conditions: mouse, in vivo, po; orally administered mice
[6] = acute toxicity (LD50) in rats; conditions: rat, in vivo, po; orally administered rats

CCC(=O)N1CC=C(c2c(C)nn(C)c2N)CC1 [Example 8]
influence on the CR and the UR (in words) [1]: no practical influence

Cc1nn(C)c2nc(OCCO)c3c(c12)CCCC3 [Example 28]
influence on the CR and the UR (in words) [1]: no practical influence

CC(=O)Oc1ccccc1C(=O)O [ASA, acetylsalicylic acid, reference compound]
percent of inhibition of writhings ([2]; 20 mg/kg per os): 10% | percent of inhibition of writhings ([2]; 50 mg/kg per os): 57% | percent of inhibition of writhings ([2]; 100 mg/kg per os): 86% | percent of increase of the pain threshold ([3]; 50 mg/kg per os): 39% | percent of increase of the pain threshold ([3]; 100 mg/kg per os): 84% | percent of increase of the pain threshold ([3]; 300 mg/kg per os): 109%

Cc1nn(C)c2c1c1c(c(=O)n2CCN2CCN(C)CC2)CCCC1 [Example 45]
influence on the CR and the UR (in words) [1]: no practical influence

Cc1nn(C)c2ncc3c(c12)CCC3 [Example 55]
analgesic activity in these tests (in words) [4]: good activity

Cc1nn(C)c2[nH]c(=O)c3c(c12)CCCC3 [Example 18, 6,7,8,9-Tetrahydro-1,3-dimethyl-3H-pyrazolo[3,4-c]isoquinoline-5(4H)-one]
influence on the CR and the UR (in words) [1]: no practical influence

Cc1nn(C)c2c1c1c(c(=O)n2CCN2CCN(c3ccccc3)CC2)CCC1 [Example 40]
influence on the CR and the UR (in words) [1]: no practical influence

CCCCOc1nc2c(c(C)nn2C)c2c1CCCC2 [Example 27]
influence on the CR and the UR (in words) [1]: no practical influence

Cc1nn(C)c(N)c1C1=CCN(C)CC1 [Example 1, 4-(1,2,5,6-tetrahydro-1-methyl-4-pyridinyl)-1,3-dimethyl 5-(1H)-pyrazolamine]
influence on the CR and the UR (in words) [1]: no practical influence

CCN(CC)CCn1c(=O)c2c(c3c(C)nn(C)c31)CCC2 [Example 39]
analgesic activity in these tests (in words) [4]: good activity

Cc1nn(C)c2ncc3c(c12)CCCC3 [Example 57]
percent of inhibition of writhings ([2]; 10 mg/kg per os): 25% | percent of inhibition of writhings ([2]; 20 mg/kg per os): 51% | percent of inhibition of writhings ([2]; 50 mg/kg per os): 89% | potency ratio co. 57:ASA ([2]; writhing test, per os): 6.6 | percent of increase of the pain threshold ([3]; 20 mg/kg per os): 78% | percent of increase of the pain threshold ([3]; 50 mg/kg per os): 115% | percent of increase of the pain threshold ([3]; 100 mg/kg per os): 172% | potency ratio co. 57:ASA ([3]; pain relief test, per os): 2.6 | analgesic activity in these tests (in words) [4]: highly effective | LD50 [5]: > 1000 mg/kg | LD50 [6]: 650 mg/kg
